Measured values published in patent publication US20260355184A1, “SMALL MOLECULE DEGRADERS OF HIV-1 TAT PROTEIN” (priority 2022, published 2026).
Read-outs that look alike come from different tables or passages of the source.

Tests used:
[1] = Cytotoxicity assay, Cell-Titer-Glo, HeLa-CD4-LTR-LacZ; details: human, hela-cd4-ltr-lacz cells, Infectivity CC50, HeLa-CD4-LTR-LacZ
Procedure: (§1) Next, the activity of these leads against HIV infection was evaluated using the reporter cell line HeLa-CD4-LTR-LacZ, which stably expresses the β-galactosidase (β-Gal) gene under the control of the HIV 5′ LTR. The HIV NL4.3 strain was used for these studies and β-Gal activity was measured 72 hrs post infection (FIG. 3A). Cytotoxicity assays using Cell-Titer-Glo were performed in parallel to assess cell viability (FIG. 3A). […] Their anti-HIV activity was further assessed in acute replication of Jurkat T cells with the NL4.3 strain (FIG. 3A). […] These OM10.1 cells contain a single integrated wild-type provirus, while ACH-2 cells contain a single integrated provirus with a TAR mutation C37T, defective Tat-TAR feedback loop (FIG. 3B).

HIV NL4.3 strain = assay: HIV infectivity assay, reporter cell line HeLa-CD4-LTR-LacZ, β-Gal activity (Tat protein inhibition); type: cell-based, HIV-1 (NL4.3); details: for IC50: Human immunodeficiency virus 1, read-out: Infectivity IC50, HeLa-CD4-LTR-LacZ
Procedure: as §1

COc1ccc(C(F)(F)F)cc1-c1noc(Cn2cc(C(F)(F)F)ccc2=O)n1 [compound 47199]
CC50 ([1]; analogs of TT-44863 (Table 2)): > 50 µM
IC50 (HIV NL4.3 strain; analogs of TT-44863 (Table 2)): > 50 µM

O=C(NCCCn1ccnc1)C(c1ccccc1)c1ccccc1 [compound 46608]
CC50 ([1]; analogs of TT-44856 (Table 3)): > 100 µM
IC50 (HIV NL4.3 strain; analogs of TT-44856 (Table 3)): 1 to 10 µM

CCC(C(=O)NCCCn1ccnc1C)(c1ccccc1)c1ccccc1 [3-69]
CC50 ([1]; analogs of TT-44856 (Table 3)): > 100 µM
IC50 (HIV NL4.3 strain; analogs of TT-44856 (Table 3)): 1 to 10 µM

O=C(Cc1cccc2ccccc12)NCCCn1ccnc1 [Z31795406]
IC50 (HIV NL4.3 strain; analogs of TT-44856 (Table 3)): > 100 µM

O=C(NCCCN1CCCC1=O)c1nnc(-c2ccccc2)c2ccccc12 [compound 46934]
CC50 ([1]; analogs of TT-44881 (Table 1)): > 100 µM
IC50 (HIV NL4.3 strain; analogs of TT-44881 (Table 1)): > 100 µM

COc1cc(C(F)(F)F)ccc1NC(=O)Cn1cc(C(F)(F)F)cc(Cl)c1=O [compound 46808]
CC50 ([1]; analogs of TT-44863 (Table 2)): > 100 µM
IC50 (HIV NL4.3 strain; analogs of TT-44863 (Table 2)): 1 to 30 µM

CCOC(=O)c1c(NCCCN2CCCC2=O)c2ccccc2[nH]c1=O [compound 46823]
CC50 ([1]; analogs of TT-44881 (Table 1)): > 100 µM
IC50 (HIV NL4.3 strain; analogs of TT-44881 (Table 1)): > 100 µM

COc1ccc(C(F)(F)F)cc1NC(=O)Cn1cc(C(F)(F)F)cc(Cl)c1=O [TT-46600]
CC50 ([1]; analogs of TT-44863 (Table 2)): > 100 µM
increase of potency vs TT-44863 (HIV NL4.3 strain; HeLa-CD4 cell NL4.3 infection assays): ~ 5 fold
IC50 (HIV NL4.3 strain; analogs of TT-44863 (Table 2)): 1 to 10 µM

CC(C)c1nccn1CCCNC(=O)C(C)(c1ccccc1)c1ccccc1 [3-54]
CC50 ([1]; analogs of TT-44856 (Table 3)): 50 to 100 µM
IC50 (HIV NL4.3 strain; analogs of TT-44856 (Table 3)): 1 to 20 µM

CC(C(=O)NCCc1ccccc1)(c1ccccc1)c1ccccc1 [3-46]
CC50 ([1]; analogs of TT-44856 (Table 3)): 20 to 50 µM
IC50 (HIV NL4.3 strain; analogs of TT-44856 (Table 3)): 50 to 100 µM

COCCOc1ccc(C(F)(F)F)cc1NC(=O)Cn1cccc(F)c1=O [compound 46762]
CC50 ([1]; analogs of TT-44863 (Table 2)): > 100 µM
IC50 (HIV NL4.3 strain; analogs of TT-44863 (Table 2)): > 100 µM

CCCC(C(=O)NCCCn1c(C)nc2ccccc21)(c1ccccc1)c1ccccc1 [3-66]
CC50 ([1]; analogs of TT-44856 (Table 3)): 20 to 50 µM
IC50 (HIV NL4.3 strain; analogs of TT-44856 (Table 3)): 20 to 50 µM

COc1ccccc1NC(=O)Cn1cc(C(F)(F)F)cc(Cl)c1=O [compound 46605]
CC50 ([1]; analogs of TT-44863 (Table 2)): > 100 µM
IC50 (HIV NL4.3 strain; analogs of TT-44863 (Table 2)): > 100 µM

Cc1cc(NCCCN2CCCC2=O)n2nc(C)nc2n1 [compound 46930]
CC50 ([1]; analogs of TT-44881 (Table 1)): > 100 µM
IC50 (HIV NL4.3 strain; analogs of TT-44881 (Table 1)): > 100 µM

CC(=O)c1cccc(CNC(=O)c2cn(-c3ccccc3)c3ccccc23)c1 [compound 41967]
CC50 ([1]; analogs of TT-44881 (Table 1)): > 100 µM
IC50 (HIV NL4.3 strain; analogs of TT-44881 (Table 1)): > 100 µM

O=C1N(CCCn2ccnc2)CCC1(c1ccccc1)c1ccccc1 [3-73]
CC50 ([1]; analogs of TT-44856 (Table 3)): > 100 µM
IC50 (HIV NL4.3 strain; analogs of TT-44856 (Table 3)): 10 to 50 µM

O=C(Cc1ccc(C(F)(F)F)cc1)NCCCn1ccnc1 [Z236749082]
IC50 (HIV NL4.3 strain; analogs of TT-44856 (Table 3)): > 100 µM

COc1ccc(C(F)(F)F)cc1NC(=O)Cn1cccc(Cl)c1=O [compound 46763]
CC50 ([1]; analogs of TT-44863 (Table 2)): > 100 µM
IC50 (HIV NL4.3 strain; analogs of TT-44863 (Table 2)): 50 to 100 µM

CCc1nccn1CCCNC(=O)C(C)(c1ccccc1)c1ccccc1 [3-56]
CC50 ([1]; analogs of TT-44856 (Table 3)): > 100 µM
IC50 (HIV NL4.3 strain; analogs of TT-44856 (Table 3)): 10 to 20 µM

CC(CNC(=O)Cc1c(F)cccc1Cl)Cn1ccnc1 (centres unmarked) [Z1250741002]
IC50 (HIV NL4.3 strain; analogs of TT-44856 (Table 3)): > 100 µM

COc1ccccc1CCNC(=O)C(C)(c1ccccc1)c1ccccc1 [3-43]
CC50 ([1]; analogs of TT-44856 (Table 3)): 25 to 50 µM
IC50 (HIV NL4.3 strain; analogs of TT-44856 (Table 3)): 20 to 100 µM

CC(CNC(=O)CCn1cnc2ccccc21)(c1ccccc1)c1ccccc1 [Z119886832]
IC50 (HIV NL4.3 strain; analogs of TT-44856 (Table 3)): > 100 µM

O=C(NCCCN1CCCC1=O)c1c(-c2ccccc2)[nH]c2ccccc2c1=O [compound 46825]
CC50 ([1]; analogs of TT-44881 (Table 1)): > 100 µM
IC50 (HIV NL4.3 strain; analogs of TT-44881 (Table 1)): > 100 µM

O=C(NCCCN1CCCC1=O)c1cnn(-c2ccccc2)c1 [compound 46935]
CC50 ([1]; analogs of TT-44881 (Table 1)): > 100 µM
IC50 (HIV NL4.3 strain; analogs of TT-44881 (Table 1)): > 100 µM

O=C(NCCCn1ccnc1)C1c2ccccc2-c2ccccc21 [3-35]
CC50 ([1]; analogs of TT-44856 (Table 3)): > 100 µM
IC50 (HIV NL4.3 strain; analogs of TT-44856 (Table 3)): 50 to 100 µM

O=C(O)c1ccc(C2(NC(=O)c3cn(-c4ccc(F)cc4)c4ccccc34)CC2)cc1 [compound 42097]
CC50 ([1]; analogs of TT-44881 (Table 1)): > 100 µM
IC50 (HIV NL4.3 strain; analogs of TT-44881 (Table 1)): > 100 µM

O=C(NCCCn1cnc2ccccc21)C(c1ccccc1)(c1ccccc1)c1ccccc1 [3-68]
CC50 ([1]; analogs of TT-44856 (Table 3)): 20 to 50 µM
IC50 (HIV NL4.3 strain; analogs of TT-44856 (Table 3)): 10 to 30 µM

O=C(Cc1cccc(C(F)(F)F)c1)NCCCn1ccnc1 [Z30217436]
IC50 (HIV NL4.3 strain; analogs of TT-44856 (Table 3)): > 100 µM

CC(C(=O)Nc1cc(OCc2ccccc2)ccn1)(c1ccccc1)c1ccccc1 [3-44]
CC50 ([1]; analogs of TT-44856 (Table 3)): > 100 µM
IC50 (HIV NL4.3 strain; analogs of TT-44856 (Table 3)): 1 to 30 µM

O=C(NCCCN1CCCC1=O)c1nc2ccccc2n1-c1ccccc1 [compound 47051]
CC50 ([1]; analogs of TT-44881 (Table 1)): > 25 µM
IC50 (HIV NL4.3 strain; analogs of TT-44881 (Table 1)): > 25 µM

COc1ccc(C(F)(F)F)cc1NC(=O)Cn1cc(C#N)cc(Cl)c1=O [compound 47018]
CC50 ([1]; analogs of TT-44863 (Table 2)): > 50 µM
IC50 (HIV NL4.3 strain; analogs of TT-44863 (Table 2)): > 50 µM

O=C(NCc1ccc(Cl)cn1)c1cn(-c2ccc(F)cc2)c2ccccc12 [compound 41980]
CC50 ([1]; analogs of TT-44881 (Table 1)): 35.6 µM
IC50 (HIV NL4.3 strain; analogs of TT-44881 (Table 1)): > 100 µM

CC(C(=O)NCCCc1cccnc1)(c1ccccc1)c1ccccc1 [3-76]
CC50 ([1]; analogs of TT-44856 (Table 3)): 10 to 30 µM
IC50 (HIV NL4.3 strain; analogs of TT-44856 (Table 3)): 1 to 30 µM

O=C(NCCCn1ccnc1)c1nn(-c2ccccc2)c2c1CCC2 [3-63]
CC50 ([1]; analogs of TT-44856 (Table 3)): 1 to 10 µM
IC50 (HIV NL4.3 strain; analogs of TT-44856 (Table 3)): 1 to 10 µM

CCN(CCCN1CCCC1=O)C(=O)c1nn(-c2ccccc2)c2c1CCC2 [GB-05]
CC50 ([1]; analogs of TT-44881 (Table 1)): > 100 µM
IC50 (HIV NL4.3 strain; analogs of TT-44881 (Table 1)): > 100 µM

O=C(COC(c1ccccc1)c1ccccc1)NCCCn1ccnc1 [Z51979572]
IC50 (HIV NL4.3 strain; analogs of TT-44856 (Table 3)): > 100 µM

O=C(NCCCN1CCCC1=O)c1nn(-c2ccccc2)cc1F [compound 47010]
CC50 ([1]; analogs of TT-44881 (Table 1)): > 100 µM
IC50 (HIV NL4.3 strain; analogs of TT-44881 (Table 1)): > 100 µM

CCN(CC(=O)Nc1cc(C(F)(F)F)ccc1OCCOC)C(=O)Cc1ccccc1 [compound 45172]
CC50 ([1]; analogs of TT-44863 (Table 2)): ~80 µM
IC50 (HIV NL4.3 strain; analogs of TT-44863 (Table 2)): ~80 µM
